Results: publication PMC7769561, “Antileishmanial activity of synthetic analogs of the naturally occurring quinolone alkaloid N-methyl-8-methoxyflindersin” (PLoS ONE, 2020)
Converted amounts (≈) assume the structure as drawn. “And” between values parts separate entries of the source, which are not always exact repeats. Equal values may be shown once. “Also recorded” adds a separate entry of the source. Read-outs that look alike come from different tables or passages of the source.

Columns and labels:
hMDMs = assay: Cytotoxicity in hMDMs (resazurin, 72 h); conditions: class by CC50
Procedure: (§1) We isolated hMDMs from buffy coats donated by the Institute of Local Science (Biotechnology and Health Innovation, Bogotá, Colombia) and spun them in Lymphoprep density gradient medium (Stem-Cell, Vancouver, Canada).
(§2) Next, we added 100 μL of this culture to each quinoline alkaloid–like compound at a concentration of 200, 20, 2, 0.2, and 0.02 μg/mL. […] Cells treated with amphotericin B (Sigma-Aldrich) were used as cell apoptosis (positive) controls. Results were expressed as the medial cytotoxic concentration (CC50) using Prism GraphPad software for nonlinear regression analysis (https://www.graphpad.com/scientific-software/prism/).
(§3) All assays required at least three independently duplicated experiments. We determined cytotoxicity against hMDMs and effectivity in L. (V) panamensis promastigotes according to each treatment’s mortality (compound and concentration) using Eq 1, where the control mean fluorescence intensity (MFI) was 100% viability: Validityinhibition(%)=100−[MIFexposedcells/MIFunexposedcells×100] (1)
(§4) We used GraphPad Prism nonlinear regression analysis to estimate the percentage mortality with regard to CC50 and EC50. […] The antileishmanial activity with regard to promastigotes was classified as active according to Eq 2: Active=EC50<[LC50/2], (2) where LC50 is the median lethal concentration. We also used GraphPad Prism nonlinear regression analysis to determine the intracellular antileishmanial activity (concentration vs. response), depending on the infection (number of infected cells) and parasite burden (number of parasites/cell) obtained in experimental conditions. Parasite inhibition was estimated using Eq 3, where the plate MFI is 100% parasites: Infectioninhibition(%)=100−[(MIFexposedparasites/MIFunexposedparasites×100)] (3)

[1] = test system: L. (V.) panamensis promastigotes; assay: Antileishmanial activity in L. (V.) panamensis promastigotes (resazurin, 72 h); format: cell-based, Leishmania (Viannia) panamensis
Procedure: They were treated with quinoline alkaloid–like compounds at a concentration of 100, 10, 1, 0.1, and 0.01 μg/mL for 72 h at 26°C. Next, we determined antileishmanial activity using the resazurin method (Sigma-Aldrich). Promastigotes treated with amphotericin B (Sigma-Aldrich) and pentamidine (Sanofi-Aventis, Gentilly, France) were used as parasite death (positive) controls. Results were expressed as the medial effective concentration (EC50) using Prism GraphPad software for nonlinear regression analysis (https://www.graphpad.com/scientific-software/prism/).
as §3, §4

[2] = test system: L. (V.) panamensis intracellular amastigotes; assay: Antileishmanial activity in L. (V.) panamensis intracellular amastigotes in hMDMs; format: cell-based, Leishmania (Viannia) panamensis; conditions: for SI (selectivity index = CC50/EC50): CC50 hMDMs / EC50 intracellular amastigotes; for EC50 Intracellular amastigotes: amastigotes in hMDMs, 72 h, ± SD
Procedure: Next, 100 μL of the suspension was cultured in 96-well plates and infected with L. (V.) panamensis promastigotes (HMOM/COL/87/UA-140) at a 10:1 parasite:cell ratio. We incubated the plates in a 5% CO2 atmosphere for 4 h at 35°C. After incubation, we removed noninternalized parasites by washing the cells with 0.9% NaCl saline solution (Baxter International, Deerfield, IL, USA). The cells were incubated again for 24 h and then treated with each quinoline alkaloid–like compound at a concentration of 100, 10, 1, 0.1, and 0.01 μg/mL in a 5% CO2 atmosphere for 72 h at 36°C. Next, we quantified the percentage of infected cells using fluorescence microscopy, as previously described by Pérez-Cordero in 2011 [23], and quantified the parasite load (amount of intracellular promastigotes and amastigotes per cell) using Giemsa staining and flow cytometry (Cytomics FC 500 MPL; Beckman Coulter, Brea, CA, USA). […] Results were expressed as EC50 using Prism GraphPad software’s probit nonlinear regression analysis (https://www.graphpad.com/scientific-software/prism/).
as §4
The percentage inhibition was used to calculate EC50 by nonlinear regression analysis (fluorescence microscopy), while the parasite burden was evaluated as the percentage of intracellular promastigotes and amastigotes in 100 infected cells (Giemsa staining). […] The selectivity index (SI) was estimated using the following formula: SI=CC50/EC50

[3] = Cytotoxicity in hMDMs (resazurin, 72 h); conditions: human
Procedure: as §1, §2, §3, §4

[4] = test system: L. (V.) panamensis (MHOM/COL/87/UA140-EGFP); assay: Therapeutic in vivo response in hamsters with experimental cutaneous leishmaniasis; set-up: species or system golden hamster (Mesocrisetus auratus)
Text: We used a golden hamster (Mesocrisetus auratus) model to evaluate the therapeutic response of synthetic alkaloid compounds 2 and 8. Male and female 6-week-old hamsters with a mean live weight (LW) of 120 g were infected by a dorsal intradermic injection of L. (V.) panamensis (MHOM/COL/87/UA140-EGFP) promastigotes. After the infected hamsters developed ulcers, they were randomly divided into three groups (n = 6 each) and treated topically with 1% ointment formulated from compounds 2 and 8.
(§5) The hamsters were monitored every 4 weeks to assess their appearance and weight and the lesion size. We categorized each compound’s effectiveness pre- and posttreatment as follows: (i) cure (complete disappearance of lesions), (ii) improvement (>10% reduced lesion area), and (iii) therapeutic failure or nonresponse (increased lesion size). The health status was monitored weekly for 3 months (12 weeks) posttreatment. After 3 months, the hamsters were euthanized in a CO2 chamber. We performed histopathological analysis after necropsy of the affected tissues and organs. In addition, we evaluated treatment cytotoxicity using LW monitoring and biochemical parameters (alanine aminotransferase [ALT], creatinine, and blood urea nitrogen [BUN]) pretreatment and 45 days after ointment administration.
The in vivo efficacy of compounds 1, 2, and 8 was expressed as a percentage cure, improvement, or nonresponse compared to the beginning of treatment. Efficacy was evaluated in vivo to compare percentages, the frequency of change, and treatment cytotoxicity in the hamster model. We used GraphPad Prism to determine ROS and NO production and the apoptotic cell percentage. One- or two-way analysis of variance (ANOVA; response–time kinetics) was used to compare treatments after confirming normal data distribution. P < 0.05 was considered statistically significant by comparing untreated cells (experiments on untreated hMDMs) with infected cells (experiments on untreated and treated hMDMs).

[5] = Treatment toxicity in hamsters (live weight, ALT, creatinine, BUN); format: in vivo, golden hamster (Mesocrisetus auratus)
Text: as §5

[6] = test system: L. (V.) panamensis-infected hMDMs; assay: ROS generation in L. (V.) panamensis-infected hMDMs (H2DCFDA flow cytometry); format: cell-based, human; conditions: compound at EC50, 4, 24, 48 and 72 h
Procedure: (§6) Next, we detached the cells with ethylenediaminetetraacetic acid (EDTA)/trypsin (Lonza, MD, USA) and 2',7'-dichlorodihydrofluorescein diacetate (H2DCFDA) tagged on a 5 μM fluorescent tube (Sigma-Aldrich) in order to identify intracellular ROS and/or 4-amino-5-methylamino-2′,7′-difluorofluorescein (DAF-FM; Sigma-Aldrich) for NO production in a 5% CO2 atmosphere for 45 min at 37°C. ROS and NO were quantified using flow cytometry (FACS Canto II) at a wavelength of 480 nm. Untreated cells were used as negative controls, while cells treated with 0.0001% H2O2 and 1 μM phorbol myristate acetate were used as ROS production (positive) controls. LPS (10 ng/mL) and phytohemagglutinin (PHA-M) (10 μL/mL) (Invitrogen) were used as positive controls for NO production.

[7] = test system: L. (V.) panamensis-infected hMDMs; assay: NO production in L. (V.) panamensis-infected hMDMs (DAF-FM flow cytometry); format: cell-based, human; conditions: compound at EC50, 24, 48 and 72 h
Procedure: as §6

[8] = test system: L. (V.) panamensis-infected hMDMs; assay: Transmission electron microscopy of L. (V.) panamensis-infected hMDMs; format: cell-based, human; conditions: compound at EC50, 72 h, TEM; on Cell membrane (ultrastructural modification grade): key: -: no alteration/absence; +: low alteration/low presence; ++: alteration/moderate presence; +++: serious disturbance/abundant presence; on LB (lipid bodies, grade): key: -: no alteration/absence; +: low alteration/low presence; ++: alteration/moderate presence; +++: serious disturbance/abundant presence; on Mitochondria (ultrastructural modification grade): key: -: no alteration/absence; +: low alteration/low presence; ++: alteration/moderate presence; +++: serious disturbance/abundant presence; on Nucleus (ultrastructural modification grade): key: -: no alteration/absence; +: low alteration/low presence; ++: alteration/moderate presence; +++: serious disturbance/abundant presence
Text: (§7) This procedure involved including fresh resin and 100–200-nm-wide ultrafine cuts observed by TEM (100X–10.000X) (HITACHI-HU-12; Hitachi, Tokyo, Japan).

[9] = test system: L. (V.) panamensis intracellular amastigotes; assay: Transmission electron microscopy of L. (V.) panamensis intracellular amastigotes in hMDMs; format: cell-based, Leishmania (Viannia) panamensis; set-up: Nucleus (ultrastructural alteration grade) / Vacuoles (ultrastructural alteration grade): key: -: no alteration/absence; +: low alteration/low presence; ++: alteration/moderate presence; +++: serious disturbance/abundant presence; conditions: compound at EC50, 72 h, TEM
Text: as §7

[10] = L. (V.) panamensis promastigotes, ± SD
[11] = L. (V.) panamensis promastigotes, ± SD, read-out: EC50 Intracellular promastigotes (converted)
[12] = hamsters, topical 1% ointment, 3 months posttreatment, n = 6

## CCCc1c(CC)nc2ccccc2c1C(=O)O [Compound 3, carboxylic acid 2-ethyl-3-propyl-4-quinolinine]
hMDMs
  Cytotoxicity class toward hMDMs: moderate (moderate if CC50 from 100 to <200 μg/mL)
[1]; [10]
  EC50 Intracellular promastigotes: 93.8 ± 6.3 µg/mL (≈ 386 µM)
[1]; [11]
  EC50: 496 µM
[2]
  SI (selectivity index = CC50/EC50): 1.27
  EC50 Intracellular amastigotes: 121.9 ± 6.2 µg/mL (≈ 501 µM)

## COc1ccc2c(OC)c3ccoc3nc2c1OC [Compound 5, 4,7,8-trimetoxifure [2,3-b]-quinoline]
[1]; [10]
  EC50 Intracellular promastigotes: 66.4 ± 13 µg/mL (≈ 256 µM)
[1]; [11]
  EC50: 256 µM
[2]
  SI (selectivity index = CC50/EC50): 1.73
  EC50 Intracellular amastigotes: 61.7 ± 1.1 µg/mL (≈ 238 µM)

## COc1ccccc1-c1cc(C(=O)O)c2ccc(C)c(C)c2n1 [Compound 6, carboxylic acid-7,8-tetrahydro-quinoline]
[1]; [10]
  EC50 Intracellular promastigotes: 61.3 ± 29.6 µg/mL (≈ 199 µM)
[1]; [11]
  EC50: 240 µM
[2]
  SI (selectivity index = CC50/EC50): 1.89
  EC50 Intracellular amastigotes: 46.5 ± 9.4 µg/mL (≈ 151 µM)

## Cc1cc2ncccc2c2nc(N)n(C)c12 [Compound 7, 3,4-dimethyl-3H-imidazol [4.5f]-quinoline-2-amine]
[1]; [10]
  EC50 Intracellular promastigotes: 26.5 ± 5.8 µg/mL (≈ 125 µM)
[1]; [11]
  EC50: 134 µM
[2]
  SI (selectivity index = CC50/EC50): 1.70
  EC50 Intracellular amastigotes: 55.8 ± 8.3 µg/mL (≈ 263 µM)

## Nc1ccc2cccc(O)c2n1 [Compound 8, 2-amino-8-hydroxyquinoline]
[3]
  CC50 at 72 h: 5.5 µg/mL and 34 µM
hMDMs
  Cytotoxicity class toward hMDMs: high (high if CC50 < 100 μg/mL)
[1]; read-out: EC50 Intracellular promastigotes
  EC50: 1.6 µg/mL and 10 µM
[2]; intracellular amastigotes, class by EC50
  Antileishmanial activity class: high (high if EC50 < 25 μg/mL)
[4]; hamsters cured by treatment, hematoxylin/eosin
  Histopathologic analysis of the skin, cured hamsters: mixed leucocyte infiltratation
[4]; hamsters, topical 1% ointment
  Lesion size during treatment: significantly reduced lesions
[4]; [12]
  Improvement (reduced lesion size), percentage of the experimental group: 50%
  No effect (poor response), percentage of the experimental group: 16.6%
  Total cure (healing), percentage of the experimental group: 33.3%
[5]; compared to before treatment
  Serum BUN level: significantly decreased
[5]; topical 1% ointment
  Cytotoxicity-related clinical manifestations: No cytotoxicity-related clinical manifestations
  Live weight posttreatment: no evident changes during treatment
[6]
  ROS generation compared to infected control cells: no significant variations
[7]
  NO production compared to untreated infected hMDMs: do not modulate the induction of NO production
[8]
  Cell membrane (ultrastructural modification grade): -
  LB (lipid bodies, grade): -
  Mitochondria (ultrastructural modification grade): +
  Nucleus (description): Abnormal distribution of chromatin; also recorded: Nuclear membrane alteration
  Nucleus (ultrastructural modification grade): +++
  PV (description): Individuals, attached to the parasite
  PV (parasitophorous vacuoles, grade): +
  Parasites (grade): +
  Vacuoles (description): Double membrane (autophagic-digestives)
  Vacuoles (ultrastructural modification grade): +++
[9]
  Cell membrane (ultrastructural alteration grade): -
  Flagellum (flagellar/axonema pocket) (description): Membrane swelling
  Flagellum (flagellar/axonema pocket) (grade): +++
  LB (lipid bodies, grade): -
  Mitochondria/Kinetoplasts (description): Membrane swelling
  Mitochondria/Kinetoplasts (ultrastructural alteration grade): +++
  Nucleus (description): Abnormal distribution of chromatine
  Nucleus (ultrastructural alteration grade): ++
  PV (description): Individuals attached to the parasite
  PV (parasitophorous vacuoles, grade): +
  Vacuoles (description): Double membrane (autophagic-digestives)
  Vacuoles (ultrastructural alteration grade): +++
